The values below come from patent US20110136858A1, “Preferred Combination Therapy” (priority 2009, published 2011).

Where only a bound is given, the exact number is not on record here.

Series [1] relates to TGF-beta1. Nature of the series: Functional assay for TGF-beta Production Stimulator activity: suppression of smooth muscle cell proliferation reversible by neutralising anti-TGF-beta1 antibody. The series is classed as cell-based, rat. Particulars: for EC50: rat aortic smooth muscle cells in culture, 72 hrs, suppression of proliferation reversible by neutralising antibodies to TGF-beta1, from dose-response curves of FIG. 2, read-out: ED50 for the TGF-beta Production Stimulator activity. An excerpt:
In order compare Droloxifene with other triphenylethylenes, we have exploited a functional assay for TGF-beta1 activity. Alternative approaches are less suitable for various reasons: it is not possible to directly measure TGF-beta protein production by cultured cells in response to triphenylethylenes because the TGF-beta that is produced remains associated with the cells or the extracellular matrix and is therefore not available for assay (for example, by ELISA) in the conditioned medium from the cultured cells. […] The specificity of such an assay is achieved by comparing the rate of proliferation of the smooth muscle cells in the presence or absence of a validated, highly specific neutralising antibody against TGF-beta (or TGF-beta1, as required).
The cells were prepared by enzyme dispersion of isolated rat aortae exactly as described previously (Grainger et al (1993) Biochem. J. 294(1):109-12 and the references therein). The cells were cultured (37° C.; 5% CO2) in DMEM+10% foetal calf serum (FCS), and subcultured every 4 days at 1:2 dilution, using 0.02% trypsin/EDTA (Gibco). Experiments were performed between the sixth and twentieth subculture.
For the experiments, the cells were subcultured into 12-well cluster plates, and allowed to grow for 24 hrs. […] The cells were then incubated for 72 hrs. All treatment conditions were established in triplicate. One triplicate of cells was counted (see below) at 0 h. All other wells were counted at 72 hrs.
The number of cells in each well was determined as follows: the well was washed three times with serum-free DMEM, aspirated and then incubated with 100 μl of trypsin/EDTA solution (Gibco) for 2 minutes at 37° C. Complete release of the cell monolayer was confirmed microscopically. The cell density in portion of this suspension was determined by counting using an Improved Neubauer hameocytometer, ensuring the suspension was uniform by gentle pipetting, prior to sampling. The cell density was converted to the absolute number of cells present in the well by multiplying the number of cells per μl by the total volume of suspension (100 μl). For each condition, the mean number of cells at the end of the experiment was calculated by meaning the number of cells in each well of triplicate.
The extent of proliferation of the cell culture under each condition was determined by subtracting the mean number of cells at time Oh from the mean number of cells under that condition at time 72 h. The amount of TGF-beta1 activity under each condition was determined by subtracting the inhibition of growth achieved in the presence of neutralising anti-TGF-beta1 antibody (AB-101-NA; R&D Systems) from the inhibition of growth achieved in the absence of antibody.

Series [2] in a line: Effect of co-administration of triphenylethylenes on clopidogrel metabolism in vivo (CLP*-acetamide by LC-MS). Further details: species or system Sprague-Dawley rats. Particulars: rats, 0.1 to 10 mg/kg analog with 10 mg/kg clopidogrel. As for the experimental part:
Adult male Sprague-Dawley rats are dosed with various triphenylethylenes at different doses from 0.1 mg/kg to 10 mg/kg (spanning the likely doses such compounds would be used in man), or with vehicle only, and simultaneously dosed with 10 mg/kg clopidogrel, both by oral gavage. Blood samples are drawn through an in-dwelling jugular catheter at 0.5, 1, 2, 4, 8 and 24 hrs post-dose, and serum is prepared by conventional methods well known in the art.
The level of CLP*, the active metabolite of clopidogrel is then determined in each blood sample by LC-MS by collecting the blood samples in tubes containing the thiol alkylating agent iodeoacetamide. Iodoacetamide reacts with CLP* to generate a stable product which can be detected by LC-MS using standard methodology well known in the art. An authentic sample of the acetamide adduct of CLP* is used to quantify the level of CLP*-acetamide in the sample. […] The concentration of CLP*-acetamide adduct can therefore be assumed to be proportional to the concentration of CLP*. The pharmacokinetics of CLP*-acetamide are then compared under the different conditions, using standard pharmacokinetics models implemented with WinNonLin.

For series [3] the following is noted: chronic Tamoxifen users; translated from the relative risk; cited from earlier work.

In the case of `CC/C(=C(/c1ccc(OCCN(C)C)cc1)c1cccc(O)c1)c1ccccc1` [Droloxifene, (E)-1-(4′-(2-dimethylaminoethoxy)phenyl)-1-(3-hydroxyphenyl)-2-phenylbut-1-ene], in series [1], the EC50 worked out at 3 µM. Further, the “effect on clopidogrel metabolism (in words)” value in series [2] is “no effect”.
Take `CC/C(=C(\c1ccc(I)cc1)c1ccc(OCCN2CCCC2)cc1)c1ccccc1` [Idoxifene]: the EC50 in series [1] came to 5 µM.
`O=C(c1ccc(OCCN2CCCCC2)cc1)c1c(-c2ccc(O)cc2)sc2cc(O)ccc12` [Raloxifene]: the “activity as Production Stimulator for TGF-beta1 (in words)” value in series [1] (rat aortic smooth muscle cells) was “does not have measurable activity”. The EC50 in series [1] was above 100 µM.
Turning to `CC/C(=C(\c1ccccc1)c1ccc(OCCN(C)C)cc1)c1ccccc1` [Tamoxifen], the “reduction in risk of death from myocardial infarction” value in series [3] is on record as 33%.
Turning to `CN(C)CCOc1ccc(/C(=C(/CCCl)c2ccccc2)c2ccccc2)cc1` [Toremifene], the EC50 in series [1] came to 10 µM.
